According to US9296778B2, “3′,5′-cyclic phosphate prodrugs for HCV infection” (Idenix Pharmaceuticals, Inc., priority 2012, dated 2016):

Columns and labels:
[1] = test system: HCV genotype 1b replicon; test: HCV Replicon Assay; format: cell-based; details: Hepatitis C virus, 72 h, Zluc cells (Huh-7-derived, HCV genotype 1b replicon, luciferase reporter), 72 hours; read-out: HCV Replicon EC50
Method in brief: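 Zluc Huh-7 cells with HCV genotype 1b replicon and luciferase reporter treated with 5-fold dilutions (100 μM to 0.0000512 μM final) in duplicate, or at 1 and 10 μM. Luminescence read with ONE-glo; EC50 from dose-response fits, or % inhibition at the fixed concentrations.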

[2] = Stability in simulated gastric fluid; format: in vitro ADME; details: 100 μM, 2 hours at 37° C., percent of the peak area at time zero
Experimental: (§1) Simulated gastric and intestinal fluids containing pepsin and pancreatin respectively were prepared according to the U.S. Pharmacopoeia USP291 procedure (www.pharmacopeia.cn/v29240/usp29nf24s0_ris1s126.html). Compounds (final concentration 100 μM) were incubated in duplicate in the appropriate fluid for 2 hours at 37° C. The samples were quenched with 200 μl cold acetonitrile, vortexed for 30 seconds and then centrifuged at 16,100 g for 10 min. The supernatants were analyzed by HPLC on a C-18 column with UV detection at 252 nm. The time 0 samples were prepared by adding SGF or SIF fluid to the quenching solvent followed by the test compound. Stability of the compounds was determined by peak area of the test compounds after incubation and calculated as percent of the peak area observed at time zero.

[3] = Stability in simulated intestinal fluid; format: in vitro ADME; details: 100 μM, 2 hours at 37° C., percent of the peak area at time zero
Experimental: as §1

[4] = Stability in fresh human whole blood; format: in vitro ADME; details: 0.5 μM, percent unchanged test compound
Experimental: (§2) Stability of compounds were determined in fresh human whole blood with K2EDTA as the anticoagulant (stored refrigerated at 2-8° C. and used within 7 days of receipt). The experiment was conducted with three replicates for each time point. Whole blood, pre-incubated at 37° C. for 10-15 minutes, was fortified with a solution of test compound for a final concentration of 0.5 μM and mixed for 30 sec. At intervals (0, 0.5, 1 and 2 hr), three 50 μL aliquots were combined with 200 μL (each) of an ice-cold solution of the internal standard (carbutamide 500 ng/mL in acetonitrile). The samples were vortexed for 30 sec and then centrifuged at 16,100 g for 5 min. The supernatant was analyzed by LC-MS/MS. The MS peak area ratio of the test compounds versus the internal standard was calculated and percent unchanged test compound was calculated for each time point using this ratio.

[5] = Stability in mouse blood; format: in vitro ADME; details: on ice, percent unchanged test compound
Experimental: as §2
The stability in mouse blood was determined on ice at 0, 0.5 and 1 hr as herein.

[6] = test system: fresh human hepatocytes; test: Release of active metabolite in fresh human hepatocytes; format: in vitro ADME; details: 10 μM compound; for FHH TP Cmax: fresh human hepatocytes; for FHH TP AUC: fresh human hepatocytes, 6, 24 and 48 hours
Method in brief: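 Overnight-acclimatized hepatocytes (0.8 million cells/well human, 0.5 million mouse) incubated at 37 °C with 10 μM test compound (0.1% DMSO). Sampled at 6, 24, 48 h (human) or 1, 4, 8, 12, 24 h (mouse); cells washed, extracted in cold 70% methanol, intracellular content quantified by LC-MS/MS with internal standard.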

[7] = test system: mouse hepatocytes; test: Release of active metabolite in mouse hepatocytes; format: in vitro ADME; details: 10 μM compound
Experimental: Plates of fresh human and mouse hepatocytes were obtained on ice. The medium was removed and replaced with hepatocyte culture medium (William's E supplemented with penicillin-streptomycin, 1% L-glutamine, 1% insulin-transferrin-selenium and 0.1 μM Dexamethasone (Invitrogen) or with Invitro GRO HI medium complemented with Torpedo antibiotics (Celsis)). Cells were left overnight in an incubator at 37° C. to acclimatize to culture and the medium.
Hepatocyte incubations were conducted at a final volume of 0.5 mL hepatocyte culture medium/well (0.8 million cells/well for human and 0.5 million cells/well for mouse; 12 well plate no overlay, collagen coat). Culture medium from overnight incubation of cells was removed and replaced with fresh medium, pre-warmed to 37° C., containing 10 μM of test compound from a stock solution in DMSO (final DMSO concentration was 0.1%). At each specific time point, incubation medium was removed and cell monolayers were carefully washed two times with ice-cold PBS. Following the last wash, all PBS was carefully removed and 1.0 mL of extraction solution (ice-cold 70% methanol/30% water) added. Cells were scraped off and suspended in the extraction solution, transferred to 2 mL polypropylene microfuge tubes and intracellular contents extracted overnight at −20° C.
After the overnight treatment the cellular extracts were prepared by centrifugation at 16,000×g for 10 min to remove cellular debris. The remaining sample was then dried using a refrigerated centrivap concentrator. Dry extracts were reconstituted in 1000 μL of HPLC-grade water and centrifuged at 16,000×g for 10 min. Aliquots (100 μL each) of the supernatant were transferred into a 96 well plate and internal standard (4 ng/mL final concentration) was added as the internal standard (IS) for LC-MS/MS analysis.
The incubation time points were 6, 24 and 48 hours for human hepatocytes and 1, 4, 8, 12 and 24 hours for mouse hepatocytes.

[8] = Plasma pharmacokinetics following a single oral dose in CD-1 mice; format: in vivo; details: single oral dose 25 mg/kg in PEG 200, CD-1 male mice; given at 1 μmol/kg; 25 mg/kg
Experimental: (§3) A single oral dose of test compound at 25 mg/kg in PEG 200 (dose volume 5 mL/kg) was administered to nine CD-1 male mice. Five untreated animals were used for the collection of control plasma and liver. Terminal plasma and liver samples were collected from three animals per time point at 4, 12 and 24 hours post dose. Liver specimens were collected from all animals immediately after the incision. Freezing forceps stored in liquid nitrogen were used to freeze the liver before excision.
Plasma samples were analyzed for 2′-methylguanosine (2′-MeG) by LC-MS/MS. The internal standard (IS) was 2′-MeG-D3. For protein precipitation and extraction, each plasma sample (50 μL) was treated with 500 μL of 0.2% formic acid in acetonitrile and 20 μL of the internal standard working solution. After vortexing and centrifugation, 500 μL of the sample extracts were transferred to a new plate, dried under N2 at ˜28° C. and reconstituted with 75 μL of 0.2% FA in water. The extracts were chromatographed on an Aquasil C18 column using a gradient system of 0.2% formic acid in water and acetonitrile. The analytes were detected and quantified by tandem mass spectrometry in positive ion mode on an MDS Sciex API5000 equipped with a Turbo Ionspray® interface. The calibration range was 0.500 (LLOQ) to 200 ng/mL in mouse plasma.

[9] = Liver pharmacokinetics following a single oral dose in CD-1 mice; format: in vivo; details: single oral dose 25 mg/kg in PEG 200, CD-1 male mice; given at 1 μmol/kg; 25 mg/kg
Experimental: as §3
Liver samples were analyzed for the active species 2′-methylguanosine triphosphate (2′-MeGTP) by LC-MS/MS. 2′-MeGTP levels were assayed by homogenizing (on ice) a known weight of mouse liver with 4× volume of 0.95 M trichloroacetic acid (TCA). Internal standard solution was added to the homogenate followed by neutralization with 20% ammonium hydroxide solution and addition of 500 μL 1% formic acid. The tissue samples were extracted by weak anion exchange solid phase extraction (SPE). Post extraction, the eluates were evaporated under nitrogen, followed by reconstitution before injection onto the LC-MS/MS system. The samples were chromatographed on a Luna NH2 column using a gradient system of ammonium acetate (1 mM to 20 mM and pH 8.0 to pH 10.0) in water and acetonitrile (70:30). The analyte was detected and quantified by tandem mass spectrometry in positive ion mode on an API4000 equipped with a Turbo Ionspray® interface. The calibration range was 10 to 10000 pmol/mL in mouse liver homogenate (50 to 50000 pmol/g of mouse liver).

[10] = in vitro; details: human, HCV Replicon CC50, Zluc cells, CellTiter-Blue
[11] = test system: Huh-7 cells; test: Release of active metabolite in Huh-7 cells; format: in vitro ADME, human; details: 10 μM compound
Experimental: Huh-7 cells were plated in 1 mL culture medium (DMEM, containing glucose, L-glutamine and sodium pyruvate, 10% FBS, 100 IU/mL penicillin, 100 μg/mL streptomycin, 2 mM GlutaMAX, 1% MEM non-essential amino acids) at the concentration 0.8, 0.4 and 0.2 million cells per well on 6 well plates for 24, 48 and 72 hr treatment, respectively. Plated cells were incubated overnight at 37° C. in an incubator.
The following morning compounds was diluted to 20 μM from a stock solution in DMSO in fresh culture medium pre-warmed to 37° C. and 1 mL of the solution/well was added to cells. A final medium volume per well was 2.0 mL, Compound concentration in well was 10 μM and final DMSO concentration was 0.1%.
After 24, 48 or 72 hr, the medium was carefully removed and cell monolayers were washed twice with 2 mL ice-cold PBS per well. Following the last wash, all PBS was carefully removed and 1.0 mL of extraction solution (ice-cold 70% methanol) added. The plate was tightly covered with Parafilm, plastic plate cover and Parafilm again and an intracellular content was extracted at −20° C. for 24 hr.
After 24 hr extracts were transferred into polypropylene microfuge tubes and dried on a refrigerated centrivap concentrator. Dry residues were reconstituted in 250 μL of HPLC-grade water and centrifuged at 16,000×g for 10 min. Aliquots (100 μL each) of the supernatants were transferred into a 96 well plate and internal standard (4 ng/mL final concentration) was added as the internal standard (IS) for LC-MS/MS analysis.

| Compound | EC50 [1] [µM] | Stability SGF [2] [%] | Stability SIF [3] [%] | Stability WB_Human (37° C.; 2 hr) [4] [%] | Stability WB_Mouse (ice; 1 hr) [5] [%] | FHH TP Cmax [6] [pmol/mill cells] | FHH TP AUC [6] [pmol · hr/mill cells] | MsH Cmax ([7]; mouse hepatocytes) [pmol/mill cells] | MsH AUC ([7]; mouse hepatocytes, 1, 4, 8, 12 and 24 hours) [pmol · hr/mill cells] | Ms Plasma 2′-MeG AUC [8] [pmol · hr/mL at 1 μmol/kg] | Ms Plasma 2′-MeG Cmax [8] [pmol/mL at 1 μmol/kg] | Ms Liver 2′-MeGTP AUC [9] [pmol · hr/g at 1 μmol/kg] | CC50 [10] [µM] | Huh-7 TP (24 hr) ([11]; 24 hr) | Huh-7 TP (48 hr) ([11]; 48 hr) | Huh-7 TP (72 hr) ([11]; 72 hr) | Huh-7 TP AUC ([11]; Huh-7 cells) [pmol/mill cells] |
| --- | --- | --- | --- | --- | --- | --- | --- | --- | --- | --- | --- | --- | --- | --- | --- | --- | --- |
| CCOc1nc(N)nc2c1ncn2[C@@H]1O[C@@H]2COP(=O)(OCCSC(=O)C(C)(C)CO)O[C@H]2[C@@]1(C)F (single isomer, unassigned) [Compound 5 Diastereomer 1] | < 0.25 | 108 | 86 | 82 | 99 | 204 | 7185 | 374 | 9866 | 97 | 8.1 | 1200 | > 50 |  |  |  |  |
| CCOc1nc(N)nc2c1ncn2[C@@H]1O[C@@H]2COP(=O)(OCCSSC(C)(C)C)O[C@H]2[C@@]1(C)F (single isomer, unassigned) [Compound 24 Diastereomer 1] | < 0.25 | 87 | 90 | 91 |  | 154 | 3399 |  |  |  |  |  | < 50 |  |  |  |  |
| CCOC(=O)CCCOP1(=O)OC[C@H]2O[C@@H](n3cnc4c(OC)nc(N)nc43)[C@](C)(O)[C@@H]2O1 (single isomer, unassigned; diastereomer 1) [Compound 25 Diastereomer 1] |  |  |  |  |  | 1137 | 2245 |  |  |  |  |  |  | 25 | 28 | 36 | 1697 |
